Reference: US20190185439A1, “RADIOFLUORINATED CARBOXIMIDAMIDES AS IDO TARGETING PET TRACER FOR CANCER IMAGING” (H. LEE MOFFITT CANCER CENTER & RESEARCH INSTITUTE, INC., priority 2016, published 2019)

Experiments:
[1] = tested on: IFN-γ stimulated HeLa cells; assay: Hela cell uptake of radioligands; assay type: cell-based, human
Procedure: HeLa cells were seeded in a 24 well culture plate at a density of 2×10^4 per well in 400 μL culture media w/FBS. After grown overnight (16 h), human IFN-γ (25 ng/well, 50 ng/mL final concentration) in 100 μL DMEM w/FBS were added into cells. The cells were rinsed with phosphate-buffered saline (PBS), and 500 μL of Earle's Minimum Essential Medium (EMEM) (ATCC 30-2003) and 10% fetal bovine serum was added to the culture wells. […] At each given time point, the cell supernatants were discard and wash the cells with PBS (0.5 mL) 3 times, the cells were subsequently lysed with 150 μL of trypsin-EDTA in each well and incubated for 5 min at 37° C., then collect the cell digestion solution and add another 150 μL of PBS into each well to collect the cells. All measurements were performed with a γ-counter (Wizard; PerkinElmer).
HeLa, PANCO2,HCT116 and 4T1 cells were selected and those cells were then cultured in the absence or presence of IFN-γ as described followed by Western Blotting to confirm IDO expression.

[2] = in vivo; cited from earlier work
Human IDO = biological target: T1, Human IDO (Homo sapiens, UniProt P14902); assay: IDO enzyme assay; assay type: biochemical; conditions: enzyme activity remaining at different inhibitor concentrations
T1 construct: purchased enzolifesciences ALX-201-333-C050
T1 sequence (P14902 whole entry): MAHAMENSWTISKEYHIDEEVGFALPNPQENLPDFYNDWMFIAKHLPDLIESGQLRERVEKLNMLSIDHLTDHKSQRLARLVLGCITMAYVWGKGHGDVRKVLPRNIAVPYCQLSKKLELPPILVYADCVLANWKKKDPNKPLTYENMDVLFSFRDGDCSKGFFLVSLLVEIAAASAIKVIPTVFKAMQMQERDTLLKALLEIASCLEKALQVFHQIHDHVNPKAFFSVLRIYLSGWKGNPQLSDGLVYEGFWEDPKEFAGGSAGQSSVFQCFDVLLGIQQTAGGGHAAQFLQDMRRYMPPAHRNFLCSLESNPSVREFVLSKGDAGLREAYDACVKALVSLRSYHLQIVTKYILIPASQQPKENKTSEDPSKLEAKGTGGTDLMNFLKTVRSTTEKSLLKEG
Procedure: The assays were performed at room temperature as described as literature reported with minor revision. […] In each well of 96 well-plate, 10 μL of Human IDO (0.05 mg/mL in KHPO4, 50 mM, PH 6.5) was added into 39 μL buffers (KHPO4, 50 mM, PH 6.5) and 1 μL inhibitor buffer in DMSO (2000, 600, 200, 60, 20, 6, 2, 0.6, 0.2 μM). Then, 50 μL the substrate buffer (4 mM L-tryptophan, 40 mM ascorbate, 20 μM methylene blue, 0.2 mg/mL catalase) was mixed into each well and incubated at 37° C. for 2 hours. Then, 10 μL of 6.1N trichloroacetic acid was mixed into each well and incubated at 52° C. for 30 min to hydrolyze N-formylkynurenine produced by IDO to kynurenine. The reaction mixture was incubated with 100 μL of 0.02 g/mL p-(dimethylamino)benzaldehyde in acetic acid at room temperature for 10 minutes. […] L-Kynurenine used as the standard, was prepared in a series of concentrations (1000, 500, 200, 100, 50, 20, 10 μM). The percent inhibition at individual concentrations was determined and the average values of duplicates were obtained. The data was processed using nonlinear regression to generate IC50 values (Prism Graphpad).

[3] = biological target: T2, IDO in IFN-γ induced HeLa cells (Homo sapiens, UniProt P14902); assay: IDO Hela cells assay (kynurenine formation); assay type: cell-based; conditions: for IFN-γ induced IDO activity in HeLa cell lines inhibited by IDO inhibitors: FIG. 2
T2 construct: native IDO in HeLa cells; endogenous in cells; host or cells: HeLa cells stimulated with human IFN-γ
T2 sequence (P14902 whole entry): as above
Procedure: Hela cells assay was carried out according to the reference (Takikawa, O., et al. (1988). “Mechanism of interferon-gamma action. Characterization of indoleamine 2,3-dioxygenase in cultured human cells induced by interferon-gamma and evaluation of the enzyme-mediated tryptophan degradation in its anticellular activity.” J Biol Chem 263(4):2041-2048; Yue, E. W., et al. (2009). “Discovery of potent competitive inhibitors of indoleamine 2,3-dioxygenase with in vivo pharmacodynamic activity and efficacy in a mouse melanoma model.” J Med Chem 52(23): 7364-7367) with minor modification. HeLa cells were routinely maintained in Earle's Minimum Essential Medium (EMEM) (ATCC 30-2003) and 10% fetal bovine serum. Cells were kept at 37° C. in a humidified incubator supplied with 5% CO2. The assay was performed as follows: HeLa cells were seeded in a 96 well culture plate at a density of 5×10^3 per well in 100 μL culture media. After grown overnight (16 h), human IFN-γ (50 ng/mL final concentration) and serial dilutions of compounds in 100 μL culture medium per well were added into cells. After an additional 48 hours of incubation, 140 μL of the supernatant per well was transferred to a new 96 well plate. Ten microliters of 6.1 N trichloroacetic acid were mixed into each well and incubated at 50° C. for 30 min to hydrolyze N-formylkynurenine produced by IDO to kynurenine. The reaction mixture was then centrifuged for 10 min at 2500 rpm to remove sediments. One hundred microliters of the supernatant per well were transferred to another 96 well plate and mixed with 100 μL of 2% (w/v) p-dimethylaminobenzaldehyde in acetic acid. The yellow color derived from kynurenine was measured at 492 nm using a SPECTRAmax 250 microplate reader. L-Kynurenine, used as the standard, was prepared in a series of concentrations (200, 100, 50, […], 12.5, 6.3, 3.2, 1.6 μM) in 100 μL HeLa cell culture media and analyzed in the same procedure. The percent inhibition at individual concentrations was determined and the average values of duplicates were obtained. The data was processed using nonlinear regression to generate IC50 values (Prism Graphpad).

Hela tumor xenografts = assay: MicroPET imaging of Hela tumor xenografts; assay type: in vivo, mice; conditions: for tracer accumulation in tumor: PET
Procedure: Female athymic C57BL/6 nude mice (4-6 weeks old) were ordered from Charles River Laboratories (Stone Ridge, N.Y., U.S.A.) and housed in a temperature and humidity controlled room. After 7 to 14 days of acclimatization, a total of 5×10^6 Hela cells were inoculated subcutaneously in 200 μL serum-free medium into the right flank of hind leg. Once tumors reach an appropriate size (3-4 mm in diameter) the mice were randomized into 5 groups (4/group). Then the mice in every group were randomized into two subgroups (rHu IFN-γ treatment or no rHu IFN-γ treatment). All the rHu IFN-γ treatment mice were injected i.p. of 1.5×10^5 U rHu IFN-γ/mouse/day. 24 h later, group one of mice were anesthetized by gas inhalation (2% vol/vol isoflurane in oxygen), then mice were euthanized and tumor tissues were dissected for further IDO western blotting and IHC in vitro. The same operation can be repeated at 48 h, 72 h, 96 h and 120 h points.
In order to evaluate the in vivo imaging performance of [^18F]IDO49 to IDO tumors, microPET imaging was performed on nude mice bearing Hela tumor xenografts both rHu IFN-γ treatment and none rHu IFN-γ treatment using the Inveon small-animal PET/CT scanner (Siemens). Anesthesia was induced with 4-5% isoflurane and maintained with 1-3% isofluorane delivered with a mixed air/oxygen through a closed nose cone throughout the PET imaging session. Mice bearing Hela tumor xenografts with rHu IFN-γ treatment were injected with 3.70-7.40 MBq (100-200 μCi) of [^18F]IDO49 in 200 μL of saline, and the baseline control mice with none rHu IFN-γ treatment was injected with the same radiotracer. PET data were collected for 90 min following radioligand administration and reconstructed into 38 dynamic frames of increasing length (6×10, 6×20, 4×30, 9×60, 2×180, 8×300, and 3×600 s). For a comparative study, [^11C]AMT PET imaging scan was also performed on Hela tumor mice at 60 min after intravenous injection of [^11C]AMT PET (3.7 MBq). The images were reconstructed and the regions of interest (ROIs) were drawn over the tumor and muscle, PET images were converted to percent injected dose per gram (%ID/g of tissue) for evaluation of tumor specificity. Image analysis was performed using the Inevon Research Workplace software.

[4] = Lipophilicity determination (shake-flask, n-octanol/PBS pH 7.4); assay type: physicochemical; conditions: n-octanol/buffer pH 7.4, shake-flask
Procedure: [^18F]IDO49 (2-30 kBq in 30 μL of water) was added to a two-layer system of n-octanol (500 μL) and 0.1M phosphate buffered saline (PBS) pH 7.4 (500 μL) in an eppendorf vial. The vessel was vortexed for 3 min and then centrifuged at 10000 rpm for 2 min. An aliquot of each layer (100 μL) was assessed for radioactivity in a wiper counter. The partition coefficient (logD7.4) was calculated as the decimal logarithm of the ratio between the counted radioactivity in the n-octanol layer and the counted radioactivity in the aqueous layer. logD7.4=(Count of n-octanol sample−Count of background)/(Count of PBS sample−Count of background). CLogP (calculated LogP) values were determined using CHEMBIODRAW ULTRA 12.0 software (Cambridge soft. Perkin-Elmer, Waltham, Mass., USA).
LogD (n-octanol/buffer pH 7.4 partition coefficient) of [^18F]IDO49 was measured using the shake-flask method and the calculated LogP (cLogP, n-octanol/water partition coefficient) was determined using CHEMBIODRAW software.

[5] = biological target: T3, IDO in IFN-γ stimulated HeLa cells (Homo sapiens, UniProt P14902); assay: Competitive cell-binding assay; assay type: cell-based; conditions: blocking with INCB024360 and NLG919, FIG. 8
T3 construct: native IDO in HeLa cells; endogenous in cells; host or cells: HeLa cells stimulated with human IFN-γ
T3 sequence (P14902 whole entry): as above
Procedure: All measurements were performed with a γ-counter (Wizard; PerkinElmer). The specificities of radioligands were determined as percentage.

[6] = IFN-γ treatment Hela tumor mice

## Cn1cc(C[C@H](N)C(=O)O)c2ccccc21 [L-1-MT]
[1]; Hela cells, 120 mins, FIG. 7B
  inhibition of IDO activity (cell uptake of [18F]IDO5L): strong inhibition

## NS(=O)(=O)NCCNc1nonc1C(=NO)Nc1ccc(F)c(Br)c1 [INCB024360]
[2]
  clearance t1/2: < 30 min

## Nc1nonc1C(=NO)Nc1ccc(F)c(Cl)c1 [IDO5L, 4-amino-N-(3-chloro-4-fluorophenyl)-N′-hydroxy-1,2,5-oxadiazole-3-carboximidamide, reference compound]
Human IDO
  affinity of human IDO for compound: higher affinity
[3]
  potency in HeLa cell-based assays compared with enzyme assays: slightly more potent
  IFN-γ induced IDO activity in HeLa cell lines inhibited by IDO inhibitors: inhibited

## C[C@](N)(Cc1c[nH]c2ccccc12)C(=O)O [[^11C]AMT, α-[^11C] methyl-L-tryptophan, reference compound]
Hela tumor xenografts; [6]
  tracer accumulation in tumor: significant tracer accumulation

## ON=C(Nc1ccc(F)c(Cl)c1)c1nonc1NCCF [IDO49]
Human IDO
  affinity of human IDO for compound: higher affinity
[3]
  potency in HeLa cell-based assays compared with enzyme assays: slightly more potent
  IFN-γ induced IDO activity in HeLa cell lines inhibited by IDO inhibitors: inhibited

## Nc1nonc1C(=NO)Nc1ccc([18F])c(Cl)c1 [[^18F]IDO5L, [^18F] 4-amino-N-(3-chloro-4-fluorophenyl)-N′-hydroxy-1,2,5-oxadiazole-3-carboximidamide, reference compound]
[4]
  logD7.4: 2.13±0.11
[1]; all time points, PANCO2, HCT116, 4T1 as comparison
  uptake in IFN-γ stimulated HeLa cells compared with other cell lines: remarkably greater

## ON=C(Nc1ccc(F)c(Cl)c1)c1nonc1NCC[18F] [[^18F]IDO49]
Hela tumor xenografts; 60 min dynamic scan
  radioactive uptake in the kidney: high
Hela tumor xenografts; 60 min post-injection, IFN-γ treatment Hela tumor mice
  tumor to muscle (T/M) relative uptake ratio, peak: 2.29±0.05
Hela tumor xenografts; [6]
  tracer accumulation in tumor: selectively accumulated
Hela tumor xenografts; summed images of dynamic microPET scans
  average SUV of the tumor, IFN-γ treatment vs none treatment: higher than none treatment
[5]
  specific binding to IDO in vitro: high specific binding
[4]
  logD7.4: 1.37±0.02
[1]; IFN-γ stimulation, different time points
  retention in IDO expression Hela cell line: retained at favorable levels
